Where “and” joins values, the source holds several entries; their conditions need not be identical. Equal entries are not always repeated.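 Exposure lasted 48 hours, with cells grown in 96-well plates and compounds tested at five concentrations. At the GI50, growth is halved. Definition used: TGI = concentration required for complete inhibition of growth.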
Columns and labels:
Assay in all cases: DTP human tumour cell line panel, 48 h
[1] = tested on: SF-295 CNS
[2] = tested on: U251 CNS
[3] = tested on: M14 melanoma
[4] = tested on: SK-MEL-5 melanoma
[5] = tested on: HCT-15 colon
[6] = tested on: NCI-H226 lung
[7] = tested on: SNB-19 CNS
[8] = tested on: DU-145 prostate
[9] = tested on: M19-MEL melanoma

SMILES	GI50 [1]	TGI [1]	GI50 [2]	TGI [2]	GI50 [3]	TGI [3]	GI50 [4]	TGI [4]	GI50 [5]	TGI [5] [µM]	GI50 [6]	TGI [6] [µM]	GI50 [7]	TGI [7] [µM]	GI50 [8]	TGI [8] [µM]	TGI [9] [µM]
COc1ccc2c(c1)C(=O)/C(=C/c1ncc([N+](=O)[O-])n1C)O2	1.5 µM	3.88 µM	0.772 µM	2.84 µM	0.244 µM	0.737 µM	0.207 µM	0.552 µM	0.221 µM	0.629	2.09 µM	5.3	1.26 µM	6.08	0.868 µM	2.98	
COc1ccccc1NC(=O)C1=C(C)NC(C)=C(C(=O)Nc2ccccc2OC)C1c1ccc(C)cc1		> 100 µM		> 100 µM		> 100 µM		> 100 µM		> 100		> 100		> 100			> 100
O=c1[nH]cnc2[nH]ncc12	349 µM	> 5000 µM	1560 µM	> 4470 µM	234 µM	> 5000 µM	1200 µM	> 5000 µM	143 µM	> 5000	878 µM	> 5000	> 5000 µM	> 5000	> 92.6 µM and 189 µM	> 2150	
C#Cc1c(C(N)=O)ncn1C1OC(COP(=O)(OCc2ccc([N+](=O)[O-])o2)N(C)CCCCCl)C(O)C1O (centres undefined)	31.2 µM	> 100 µM	53.9 µM	> 100 µM	67.9 µM	> 100 µM	2.83 µM	26.5 µM	31.3 µM	> 100	> 100 µM	> 100	51.7 µM	> 100	7.83 µM	> 100	
O=Nc1ccc2ccccc2c1O	7.78 µM	25.4 µM	3.11 µM	9.46 µM	5.07 µM	16.5 µM	2.71 µM	8.41 µM	10.2 µM	30.8	12.4 µM	29.1	15 µM	28.4	10.4 µM	22.7	
O=C(c1ccco1)c1c(C(F)(F)F)n([O-])c2ccccc2[n+]1=O	1.32 µM	7.69 µM	0.719 µM	18.2 µM	0.613 µM	1.91 µM	0.999 µM	3.68 µM	0.785 µM	3.85	0.665 µM	4.31	3.34 µM	22.3	0.367 µM	0.969	
CC(=O)OC1CC2(O)C3CCC4CC(O)CCC4(C)C3CCC2(C)C1C1=CC(=O)OC1 (centres undefined)		0.222 µM		0.427 µM		0.367 µM		0.116 µM		0.253		0.784		1.25		0.11	
COc1ccc(C(=O)c2cc3c(OC)c(OC)c(OC)cc3[nH]2)cc1	6.72 µM	> 100 µM	5.2 µM	> 100 µM	3.69 µM	> 100 µM	2.2 µM	5.62 µM	2.23 µM	> 100	> 100 µM	> 100	18.6 µM	> 100	> 100 µM	> 100	
Cc1cc(Nc2ncnc3ccc(NC4=NC(C)(C)CO4)cc23)ccc1Oc1ccn2ncnc2c1	14.9 µM and > 10 µM	38.3 µM and > 10 µM	13.4 µM and > 10 µM	35.7 µM and > 10 µM	14.6 µM and > 10 µM	33.1 µM and > 10 µM	9.59 µM and 9.83 µM	22.3 µM and > 10 µM	8.92 µM and > 10 µM	> 65.9	16.6 µM and > 10 µM	> 90.2	21.9 µM and > 10 µM	> 100	15.9 µM and > 10 µM	> 100	
CC(=O)CCCCO		> 100 µM		> 100 µM		> 100 µM		> 100 µM		> 100				> 100			> 100
Cc1ccc2c(c1)NC(=O)CC(c1ccccc1)=N2		> 100 µM		> 100 µM		> 100 µM		> 100 µM		> 100		> 100		> 100		> 100	
COc1ccccc1C#Cc1ccccc1C#CCCCCCC#Cc1ccccc1C#Cc1ccccc1OC	> 100 µM	> 100 µM	97.1 µM	> 100 µM	48.7 µM	> 100 µM	> 100 µM	> 100 µM	40.9 µM	> 100	> 100 µM	> 100	> 100 µM	> 100	> 100 µM	> 100	
Cc1c(C)[n+](=O)c(C)c(C)n1[O-]	> 100 µM	> 100 µM	> 100 µM	> 100 µM	> 100 µM	> 100 µM	> 100 µM	> 100 µM	> 100 µM	> 100	> 100 µM	> 100	> 100 µM	> 100	> 100 µM	> 100	
S=C1Nc2ccc(Cl)cc2C2(c3ccccc3)N3CCN=C3NN12 (centres undefined)	28.6 µM	> 100 µM	35.1 µM	> 100 µM	39.9 µM	> 100 µM	28.1 µM	45.4 µM	34 µM	> 100	33.9 µM	> 100	36.9 µM	> 100	40 µM	> 100	
C=CC1CC12C(=O)C1OC2(C)C2C(=O)c3c(O)ccc(O)c3C(=O)C12 (centres undefined)	1.39 µM	5.55 µM	4.3 µM	12.6 µM	3.58 µM	14.7 µM	1.86 µM	4.97 µM	2 µM	5.05	5.8 µM	14.2	5.35 µM	14.5	3.91 µM	13	
CC(=O)O/N=C1/C(c2c(O)[nH]c3cc(Br)ccc23)=Nc2ccccc21	2 µM	5.47 µM	1.72 µM	5.63 µM	2 µM	4.88 µM	0.524 µM	1.33 µM	0.962 µM	2.72	1.45 µM	4.74	4.26 µM	11.1	1.44 µM	3.2	

SMILES	GI50 [1]	TGI [1]	GI50 [2]	TGI [2]	GI50 [3]	TGI [3]	GI50 [4]	TGI [4]	GI50 [5]	TGI [5] [µM]	GI50 [6]	TGI [6] [µM]	GI50 [7]	TGI [7] [µM]	GI50 [8]	TGI [8] [µM]	TGI [9] [µM]
O=C(CCl)N1c2ccccc2Sc2ccc3ccccc3c21	1.68 µM	3.15 µM	1.55 µM	2.95 µM	1.66 µM	3.43 µM	1.6 µM	2.96 µM	1.09 µM	2.53	2.36 µM	5.5	1.58 µM	3.09	1.53 µM	2.9	
COC(=O)[C@]12CC[C@@H](C)[C@H](C)[C@@H]1C1=CC[C@@H]3[C@@]4(C)C=C(O)C(=O)[C@@]5(C)COC(=C54)C[C@@]3(C)[C@]1(C)CC2	13 µM	28.7 µM	12.6 µM	30.7 µM	11.7 µM	27.3 µM	4.25 µM	15.3 µM	11.6 µM	26.6	15.1 µM	41.3	15.8 µM	37.9	11.7 µM	28.2	
Cc1ccc(SC2=CC(=O)c3nc4ccccc4c4ccnc2c34)cc1	> 100 µM	> 100 µM	30.2 µM	> 100 µM	51.9 µM	> 100 µM	29.1 µM	> 66.8 µM	18.4 µM	40.6	> 61.9 µM	> 100	> 71.2 µM	> 100	43 µM	> 67.4	
O=C(Nc1ccc(Cl)cc1)c1cc(-c2ccc(Cl)cc2)c2sc(=O)[nH]c2n1	1.56 µM	4.37 µM	1.88 µM	11.8 µM	2.75 µM	10.3 µM	0.687 µM	2.99 µM	1.27 µM	9.54	2.26 µM	9.18	3.64 µM	> 100	3.31 µM	26.5	
COC(=O)C1(F)C(=O)NC(=O)NC1O (centres undefined)		> 100 µM		> 100 µM		> 100 µM		> 100 µM		> 100		> 100		> 100		> 100	
O=C(O)c1cc(N=Cc2ccccc2O)cc(C(=O)O)c1		> 100 µM		> 100 µM		> 100 µM		> 100 µM		> 100		> 100		> 100		> 100	
CN(C)C(=O)c1cc2cnc(Nc3ccc(-c4csc5c(=O)cc(N6CCOCC6)oc45)cc3)nc2n1C1CCCC1	0.242 µM	1.14 µM	0.2 µM	> 100 µM	0.184 µM	0.601 µM	0.146 µM	0.423 µM	0.224 µM	1.35	0.229 µM	2.04	0.217 µM	> 28.5	0.265 µM	1.32	
COc1ccccc1/C=N\N=C(N/N=C/c1ccccc1OC)N/N=C/c1ccccc1OC	2.03 µM	5.11 µM	2.67 µM	15 µM	2.99 µM	9.96 µM	1.77 µM	3.23 µM	3.27 µM	18.3	4.08 µM	> 100	3.37 µM	> 100	3.92 µM	> 100	
COc1cccc2c1C(=O)c1c(O)c3c(c(O)c1C2=O)C[C@@](O)(C(=O)CO)C[C@@H]3OC1C[C@H](N)[C@H](O)[C@H](C)O1 (some centres undefined)	0.0371 µM	0.372 µM	0.025 µM	2.25 µM	0.0846 µM	0.404 µM	0.0368 µM	0.104 µM	0.906 µM	> 50	0.0201 µM	0.102	0.0246 µM	6.33	0.0684 µM		
Cc1cc(C)c(O)c(CN(C)Cc2cc(Cl)cc(Cl)c2O)c1	2.18 µM	6.18 µM	4.01 µM	17.1 µM	9.17 µM	22.8 µM	5.57 µM	18.2 µM	3.41 µM	16.8	6.56 µM	23.1	4.82 µM	20.8	6.37 µM	20.8	
N#CCc1ncc(-c2ccc(C(F)(F)F)cc2)c(NC2CCCCCC2)n1	> 10 µM	> 10 µM	> 10 µM	> 10 µM	> 10 µM	> 10 µM	> 10 µM	> 10 µM	> 10 µM	> 10	> 10 µM	> 10	> 10 µM	> 10	> 10 µM	> 10	
c1ccc(-c2nc(-c3ccccc3)c(-c3ccccc3)[nH]2)cc1		> 100 µM		> 100 µM		> 100 µM		> 100 µM		> 100		> 100		> 100		> 100	
C=C1C(=O)O[C@H]2[C@H]1CC/C(COC(=O)CSCC(=O)OC/C1=C/CC[C@@]3(C)O[C@H]3[C@H]3OC(=O)C(=C)[C@@H]3CC1)=C\CC[C@@]1(C)O[C@@H]21	10.2 µM	26.2 µM	3.19 µM	11.3 µM	1.63 µM	3.87 µM	1.73 µM	3.77 µM	1.25 µM	2.69	2.28 µM	6.59	3.11 µM	13.9	1.5 µM	3.05	
CO[C@@H]1/C=C(C)/C=C/[C@@H](C)/C=C(\C)C(=O)OC(/C(C)=C/C=C(\C)CNC(=O)[C@H](CO)NC=O)[C@@H](C)/C=C/C=C/[C@H](OC)CC/C=C(C)/C=C/C1 (some centres undefined)	< 0.005 µM	0.00951 µM	< 0.005 µM	0.214 µM	< 0.005 µM	< 0.005 µM	< 0.005 µM	< 0.005 µM	0.0225 µM	6.88	< 0.005 µM	0.221	0.303 µM	9.12	0.169 µM	14.5	
O=C(N/N=C/c1ccccc1O)C(=O)Nc1ccc(F)cc1	1.81 µM	15.5 µM	2.75 µM	> 100 µM	4.87 µM	40.4 µM	5.62 µM	> 100 µM	1.86 µM	> 100	16 µM	> 100	4.91 µM	> 100	7.14 µM	> 100	
Cc1c2c[n+](C(C)C)ccc2c(C)c2c1[nH]c1ccccc12	1.32 µM	20 µM	0.456 µM	15.2 µM	3.77 µM	17 µM	1.5 µM	3.89 µM	52.1 µM	> 100	4.32 µM	41.5	0.416 µM	14.7	4.74 µM	54.1	
